According to patent US10060907B2, “Redoxindicators” (priority 2014, dated 2018):
Read-outs that look alike come from different tables or passages of the source.

Experiments:
Solubility in water = assay type: physicochemical
[1] = Reaction of an indicator with NADH, UV/Vis of the reduced form; assay type: physicochemical; conditions: for UV-Vis λmax after reduction with NADH: water; for UV/Vis reduced form, λmax after reduction with NADH: 50 mM phosphate buffer pH = 7
Experimental: The following were mixed in a cuvette: 50 μL of 10 mM solution of an indicator (1-methyl-3-[(E)-2-(1,3,3-trimethyl-3H-indolium-2-yl)ethenyl]quinolinium iodide trifluoromethanesulfonate) in distilled water, 950 μL of 50 mM phosphate buffer pH 7, 2 μL of 10 mM NADH solution in distilled water. A UV/Vis spectrum (400-1000 nm) was recorded every 7.5 sec for a 1 min after addition of NADH (resolution 2 nm) (FIG. 1). No further color change could be measured after 52.5 sec.

[2] = Cyclic voltammetry (CV) studies of the redoxindicators; assay type: physicochemical; conditions: vs Ag/AgCl, 0.9% NaCl at pH 7, phosphate buffer, Au working electrode, scan rate 100 mVs^−1
Experimental: The CVs of the compounds synthesized in example 6-7 were recorded vs. the Ag/AgCl reference electrode in a phosphate buffer pH 7 (Table 4).
E/mV vs Ag/AgCl, 0.9% NaCl at pH 7, phosphate buffer, Au working electrode, scan rate 100 mVs^−1

[3] = Evaluation of the reaction rates with ascorbate; conditions: sodium ascorbate
Experimental: (§1) Two solutions of the redoxindicator 1-methyl-6-((E)-3-oxo-3-phenyl-propenyl)-quinolinium methosulfate (5.00 mg, 0.013 mmol) in 1.00 ml water were each treated with an excess of NADH (disodium salt) or sodium ascorbate, respectively. […] After a few minutes, a larger amount of an orange precipitate was obtained, probably the insoluble dihydrochinoline. […] Even after 16 h no precipitate was found.
(§2) Two solutions of the redoxindicators 1-methyl-3-[(E)-2-(1,3,3-trimethyl-3H-indolium-2-yl)ethenyl]quinolinium iodide trifluoromethanesulfonate (0.005 mmol) in 1.00 ml of 50 mM phosphate buffer pH 7 were each treated with 2 μL of 10 mM NADH (disodium salt) or sodium ascorbate solutions in distilled water, respectively. The absorbance at 535 nm was measured in relation to time (FIG. 3).

[4] = Evaluation of the reaction rates with NADH; conditions: for Colour change of the solution treated with NADH: NADH (disodium salt); for Turnover rates with NADH compared with ascorbate: NADH vs ascorbate
Experimental: as §1, §2

[5] = Evaluation of extinction coefficient under pseudo-first-order reaction conditions; assay type: physicochemical; conditions: 535 nm, 50 mM phosphate buffer pH 7, from slope of ΔAbs vs initial NADH
Experimental: The following were mixed in a cuvette: 100 μL of 10 mM solution of 1-methyl-3-[(E)-2-(1,3,3-trimethyl-3H-indolium-2-yl)ethenyl]quinolinium iodide trifluoromethanesulfonate in distilled water, 900 μL of 50 mM phosphate buffer pH 7, 1-3 μL of 10 mM NADH in distilled water. Change in absorbance at 535 nm was recorded after 5 min, when no further color change could be measured (FIG. 3, 9).
This ε value is nine times greater than those of the reduced form of MTT (Czerlinski, G. H.; et al; Journal of Biochemical and Biophysical Methods 1988, 15, 241).

[6] = Fluorometric determination of NADH; conditions: 20 μM indicator, 4 μM NADH, 10 mM PIPES pH 7, excitation at 535 nm
Experimental: The following were mixed in a cuvette: 2 μL of 10 mM solution of an indicator (1-methyl-3-[(E)-2-(1,3,3-trimethyl-3H-indolium-2-yl)ethenyl]quinolinium iodide trifluoromethanesulfonate) in distilled water, 1000 μL of 10 mM PIPES buffer pH 7, 0.5-4 μL of 1 mM NADH solution in distilled water. The mixture was incubated for 30 min at room temperature. Fluorescence (550-800 nm) was recorded using excitation at 535 nm. (FIG. 10, 11).

HEK-293 cells = assay: Cell viability testing, confocal fluorescence microscopy; assay type: cell-based; conditions: 20 μM
Experimental: Viable HEK-293 cells and 4% paraformaldehyde killed HEK-293 cells were incubated with 1-methyl-3-[(E)-2-(1,3,3-trimethyl-3H-indolium-2-yl)ethenyl]quinolinium iodide trifluoromethanesulfonate (20 μM) in 10 mM PBS pH 7 at 37 C. Confocal fluorescence microscope images were recorded at 611 nm using excitation at 561 nm. […] The resulting cells retained viability for at least 24 h.

[7] = test system: glucose dehydrogenase 2 (GlucDH2); assay: Determination of glucose with GlucDH2/NAD and an indicator; assay type: biochemical; conditions: 0.5 mM indicator, NAD/GlucDH2, glucose 385 μM, 100 mM phosphate buffer pH 7
Experimental: The following were mixed in a cuvette: 500 μL of 1.0 mM solution of an indicator (1-methyl-6-[(E)-2-(1,3,3-trimethyl-3H-indolium-2-yl)vinyl]quinolinium iodide trifluoromethanesulfonate) in 100 mM phosphate buffer pH 7, 500 μL of glucose dehydrogenase 2 (GlucDH2) solution (in 100 mM phosphate buffer pH 7 containing 4.0 mM NAD^+) at a concentration of 491 U/ml, 40 μL of 10 mM solution of glucose in distilled water. A UV/Vis spectrum (300-1000 nm) was recorded every 1 min for a 10 min after addition of glucose (resolution 1 nm) (FIG. 4).

Q: With `C[N+]1=C(/C=C/c2ccc[n+](C)c2)C(C)(C)c2ccccc21` as the molecule, how does the solubility (Solubility in water) read?
A: ≥ 114 mM

Q: For `C[N+]1=C(/C=C/c2ccc(-c3ccc(/C=C/C4=[N+](C)c5ccccc5C4(C)C)c[n+]3C)[n+](C)c2)C(C)(C)c2ccccc21.O=S(=O)([O-])C(F)(F)F.O=S(=O)([O-])C(F)(F)F.[I-].[I-]`, which solubility (Solubility in water) is on record?
A: ≥ 15 mM

Q: With `CC[n+]1cc(/C=C/C2=[N+](C)c3ccccc3C2(C)C)cc2ccccc21` as the molecule, how does the solubility (Solubility in water) read?
A: ≥ 4 mM

Q: Which solubility (Solubility in water; Cl^− form) does the source give for `CC[n+]1cc(/C=C2\CCC[N+]3=C2C(C)(C)c2ccccc23)cc2ccccc21` here?
A: ≥ 0.3 mM

Q: With `C[N+]1=C(/C=C/c2c[n+](C)cc3ccccc23)C(C)(C)c2ccccc21` as the molecule, how does the solubility (Solubility in water) read?
A: ≥ 25 mM

Q: For `C[N+]1=C(/C=C/c2cccc3c2ncc[n+]3C)C(C)(C)c2ccccc21.O=S(=O)([O-])C(F)(F)F.[I-]`, which UV-Vis λmax after reduction with NADH [1] is on record?
A: 535 nm

Q: And the solubility (Solubility in water)?
A: ≥ 9 mM

Q: For `C[N+]1=C(/C=C/c2cccc3c2nc2ccccc2[n+]3C)C(C)(C)c2ccccc21.O=S(=O)([O-])C(F)(F)F.[I-]`, which solubility (Solubility in water) is on record?
A: ≥ 4 mM

Q: With `C[N+]1=C(/C=C/c2ccc3c(c2)nc2ccccc2[n+]3C)C(C)(C)c2ccccc21.O=S(=O)([O-])C(F)(F)F.[I-]` as the molecule, how does the “UV-Vis λmax after reduction with NADH” value [1] read?
A: LC-MS m/z 379.3 (M^+) HRMS m/z 378.1970 ([M − H]^+) UV-Vis (water) after reduction with NADH: λmax 740 nm;

Q: Which Reduction potential [2] does the source give for `C[N+]1=C(/C=C/c2ccc[n+](C)c2)C(C)(C)c2ccccc21.O=S(=O)([O-])C(F)(F)F.[I-]` here?
A: −564 mV

Q: For `CC[n+]1cc(/C=C/C2=[N+](C)c3ccccc3C2(C)C)cc2ccccc21.O=S(=O)([O-])C(F)(F)F.[I-]`, which Reduction potential [2] is on record?
A: −524 mV

Q: For `C[N+]1=C(/C=C/c2c[n+](C)cc3ccccc23)C(C)(C)c2ccccc21.O=S(=O)([O-])C(F)(F)F.[I-]`, which Reduction potential [2] is on record?
A: −424 mV

Q: With `CC[n+]1cc(/C=C/C2=[N+](C)c3ccccc3C2(C)C)c2ccccc2c1.O=S(=O)([O-])C(F)(F)F.[I-]` as the molecule, how does the Reduction potential [2] read?
A: −454 mV

Q: Which solubility (Solubility in water) does the source give for `CCOc1cccc2c1nc1c(/C=C/C3=[N+](C)c4ccccc4C3(C)C)cccc1[n+]2C.[Cl-].[Cl-]` [9-ethoxy-10-methyl-1-[(E)-2-(1,3,3-trimethyl-3H-indolium-2-yl)vinyl]phenazinium] here?
A: ≥ 7 mM

Q: For `COS(=O)(=O)[O-].C[n+]1cccc2cc(/C=C/C(=O)c3ccccc3)ccc21` [MOPPQ, 1-Methyl-6-((E)-3-oxo-3-phenyl-propenyl)-quinolinium methosulfate], which “Colour change of the solution treated with ascorbate” value [3] is on record?
A: showed only a pale orange color

Q: And the “Colour change of the solution treated with NADH” value [4]?
A: changed rapidly from nearly colorless to orange

Q: What about the “Turnover rates with NADH compared with ascorbate” value [4] of the same molecule?
A: much higher than with ascorbate

Q: What does the source list for `C[N+]1=C(/C=C/c2cc3ccccc3[n+](C)c2)C(C)(C)c2ccccc21.O=S(=O)([O-])C(F)(F)F.[I-]` [XXIV, 1-methyl-3-[(E)-2-(1,3,3-trimethyl-3H-indolium-2-yl)ethenyl]quinolinium iodide trifluoromethanesulfonate]?
A: Colour change of the solution treated with ascorbate [3]: did not change color; Extinction coefficient ε of the reduced form [5]: 69.3 mM⁻¹ cm⁻¹; Colour change of the solution treated with NADH [4]: changed rapidly from nearly colorless to pink; Turnover rates with NADH compared with ascorbate [4]: much higher than with ascorbate; Time after addition of NADH after which no further color change could be measured ([1]; 0.5 mM indicator, 20 μM NADH, 50 mM phosphate buffer pH 7): 52.5 s; UV/Vis reduced form, λmax after reduction with NADH [1]: 535 nm; solubility (Solubility in water): ≥ 10 mM; Fluorescence emission λmax after adding NADH [6]: 560 nm; Fluorescence intensity, viable vs dead HEK-293 cells (HEK-293 cells): much higher in viable cells than in dead cells; Fluorescence intensity in viable HEK-293 cells (HEK-293 cells; 10 mM PBS pH 7, 37 C, 611 nm, excitation 561 nm): fluorescence intensity was enhanced; Cellular uptake in viable HEK-293 cell (HEK-293 cells; confocal image): showed cellular uptake; Fluorescence intensity in paraformaldehyde killed HEK-293 cells (HEK-293 cells; 4% paraformaldehyde killed cells, 10 mM PBS pH 7, 37 C): did not show enhancement in fluorescence intensity; Time for which treated cells retained viability (HEK-293 cells; viable HEK-293 cells): at least 24 h

Q: With `C[N+]1=C(/C=C/c2ccc3c(ccc[n+]3C)c2)C(C)(C)c2ccccc21.O=S(=O)([O-])C(F)(F)F.[I-]` [drawing 35, 1-methyl-6-[(E)-2-(1,3,3-trimethyl-3H-indolium-2-yl)vinyl]quinolinium iodide trifluoromethanesulfonate] as the molecule, how does the “UV/Vis reduced form, λmax after reduction with NADH” value [1] read?
A: 517 nm

Q: What about the “Absorbance λmax after adding glucose” value [7] of the same molecule?
A: 516 nm

Q: And the solubility (Solubility in water)?
A: ≥ 15 mM

Q: With `C[N+]1=C(/C=C/c2cc3ccccc3[n+](C)c2)C(C)(C)c2ccccc21.O=S(=O)([O-])C(F)(F)F.[I-]` [drawing 50] as the molecule, how does the Reduction potential [2] read?
A: −534 mV

Q: With `C[N+]1=C(/C=C/c2ccc3c(ccc[n+]3C)c2)C(C)(C)c2ccccc21.O=S(=O)([O-])C(F)(F)F.[I-]` [drawing 52] as the molecule, how does the Reduction potential [2] read?
A: −634 mV
